Literature values in patent US7816516B2, “Conjugates of hydroxyalkyl starch and an active agent” (Fresenius Kabi Deutschland GmbH, priority 2001, dated 2010).

Columns and labels:
[1] = in vivo
[2] = isolated haemoglobin; dimers eliminated via the kidneys

Compound	portion of renal elimination [1]	biological half-life in the blood circulation [2]
CO[C@@]12[C@H](COC(N)=O)C3=C(C(=O)C(C)=C(N)C3=O)N1C[C@@H]1N[C@@H]12 [mitomycin C]	approximately 18%	
haemoglobin		approx. 1 hour
